Measured values as given in US20220064238A1, “Methods And Compositions For Modifying Transcription Factor Activity by Targeting The Human Mediator Complex Using Cell Penetrating Memetic Peptides And Methods of Treating Cancer Using The Same” (The Regents of the University of Colorado, a body corporate, priority 2020, published 2022).
Bridge positions count the residues as written; N and C are the ends. Square brackets hold non-standard residues; d marks the D form. Peptide text beside a SMILES is read from it. PEG6 = NCCOCCOCCOCCOCCOCCOCCC(=O)O; R8 = C=CCCCCCC[C@@](C)(N)C(=O)O; S5 = C=CCCC[C@](C)(N)C(=O)O

Columns and labels:
[1] = biological target: T1, p53-activated transcription (Gal4-p53AD, Mediator) (Homo sapiens, UniProt Q9NVC6); assay: In vitro transcription on naked DNA templates, p53-activated (+Gal4-p53AD); type: biochemical; settings: 500 nM peptide
T1 construct: made in house
From the text: To screen peptides for the ability to selectively block p53-dependent transcription, we required an assay that enabled p53-dependent activation but that could also support basal (i.e. activator-independent) transcription. The present inventors had previously established an in vitro transcription assay (using highly purified human factors (FIG. 1A). A key feature of this assay was that both activated and basal transcription could be reconstituted on naked DNA templates (i.e. DNA templates not assembled into chromatin). To adapt this assay for purposes of measuring basal vs. p53-activated transcription, we generated templates with Gal4 DNA binding sites upstream of the adenovirus major late promoter sequence (FIG. 5A, B). Upon titration of a Gal4 DNA Binding Domain (DBD)-p53 Activation Domain (AD; residues 1-70) fusion protein into this system, we observed pol II-dependent transcription that was dependent on p53AD and Mediator (FIG. 5C). Reactions containing Gal4-p53AD generally produced about two- to four-fold more transcripts compared to reactions with no activator (FIG. 5C). Because experiments without Gal4-p53AD produced a low level of “basal” transcription that could be quantitated, this system allowed assessment of both p53-activated and basal transcription. […]

VP16-Mediator binding = biological target: T2, VP16-Mediator binding (Homo sapiens, UniProt Q71SY5+Q9NVC6); assay: In vitro binding assay, VP16AD-Mediator; settings: bivalent peptide 5 μM
T2 construct: endogenous in cells

[2] = tested on: pol II occupancy at the p21 locus; assay: ChIP of RNA polymerase II occupancy at CDKN1A (p21); type: cell-based; settings: 3 h post-Nutlin, Ser5-phosphorylated pol II ChIP
From the text: FIGS. 13A-B. Summary of ChIP experiments, showing that RNA polymerase II occupancy at the p53 target gene CDKN1A (p21) is reduced in cells treated with the bivalent peptide (peptide). A) Time course following Nutlin induction, to determine ideal time point to probe pol II occupancy at the p21 locus. […] However, pol II occupancy is reduced in cells treated with the bivalent peptide. […] Pol II phosphorylated at serine-5 of its C-terminal domain was used for ChIP analysis, because this is a proxy for initiating pol II at gene promoters (start sites). Data represent biological triplicates. Similar results were observed genome-wide, using ChIP-seq, although the timing of induction across p53 target genes will vary (data not shown).

`CC[C@H](C)[C@H](NC(=O)[C@H](CC(=O)O)NC(=O)[C@H](CC(=O)O)NC(=O)[C@@H]1CCCN1C(=O)[C@H](CO)NC(=O)[C@H](CC(C)C)NC(=O)CCOCCOCCOCCOCCOCCOCCNC(=O)[C@H](CCCNC(=N)N)NC(=O)[C@H](CCCNC(=N)N)NC(=O)[C@]1(C)CCCC=CCCCCCC[C@@](C)(NC(=O)[C@H](Cc2ccccc2)NC(=O)[C@H](CCCNC(=N)N)NC(=O)[C@H](CCC(=O)O)NC(=O)[C@H](CCC(N)=O)NC(=O)[C@H](CO)NC(=O)[C@H](CCCNC(=N)N)NC(C)=O)C(=O)N[C@@H](CC(=O)O)C(=O)N[C@@H](CC(C)C)C(=O)N[C@@H](Cc2c[nH]c3ccccc23)C(=O)N[C@@H](CCCCN)C(=O)N[C@@H](CCCNC(=N)N)C(=O)N[C@@H](CC(C)C)C(=O)N1)C(=O)N[C@@H](CCC(=O)O)C(=O)N[C@@H](CCC(N)=O)C(=O)N[C@@H](Cc1c[nH]c2ccccc12)C(=O)N[C@@H](Cc1ccccc1)C(=O)N[C@H](C(=O)N[C@@H](CCC(=O)O)C(=O)N[C@@H](CC(=O)O)C(N)=O)[C@@H](C)O` [bivalent peptide] (Ac-RSQERF[R8]DLWKRL[S5]RR[PEG6]LSPDDIEQWFTED-NH2; staple 7-14; N-terminus assumed) was tested. Which “inhibition of p53-activated transcription at 500 nM” value [1] did it give?
The value was “inhibited”.

What about the “effect on VP16AD binding to Mediator” value (VP16-Mediator binding) of the same compound?
Its value is “did not reduce VP16AD binding to Mediator”.

What about the “increase in Mediator-bound VP16 in +peptide experiments (GST-VP16 normalized to MED15)” value (VP16-Mediator binding; n=2) of the same compound?
The value was 1.67 fold.

What about the “pol II occupancy at the p21 locus in peptide-treated cells” value [2] of the same compound?
Its value is “reduced”.
